Laboratory results from US9650361B2, “N-(pyridin-2-yl)pyrimidin-4-amine derivatives containing a sulfoximine group” (BAYER PHARAM AKTIENGESELLSCHAFT, priority 2012, dated 2017).
Converted amounts (≈) assume the structure as drawn.

How the values were obtained:
[1] = molecular target: T1, human carbonic anhydrase-1 (Homo sapiens, UniProt P00915); assay: Carbonic anhydrase assay, carbonic anhydrase-1 (Method 6); type: biochemical; details: read-out: Inhibition of Carbonic anhydrase-1 IC50
T1 construct: purchased Sigma C4396
T1 sequence (P00915 whole entry): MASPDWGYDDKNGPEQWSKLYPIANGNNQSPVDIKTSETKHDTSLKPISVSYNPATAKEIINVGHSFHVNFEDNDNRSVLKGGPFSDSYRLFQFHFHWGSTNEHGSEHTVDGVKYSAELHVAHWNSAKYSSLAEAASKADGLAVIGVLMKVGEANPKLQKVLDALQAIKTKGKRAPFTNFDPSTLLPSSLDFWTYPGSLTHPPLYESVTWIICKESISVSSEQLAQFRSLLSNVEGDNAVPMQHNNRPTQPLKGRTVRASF
Procedure: (§1) 6. Carbonic Anhydrase Assay
(§2) The principle of the assay is based on the hydrolysis of 4-nitrophenyl acetate by carbonic anhydrases (Pocker & Stone, Biochemistry, 1967, 6, 668), with subsequent photometric determination of the dye product 4-nitrophenolate at 400 nm by means of a 96-channel spectral photometer.
(§3) 2 μL of the test compounds, dissolved in DMSO (100-fold final concentration), in a concentration range of 0.03-10 μmol/L (final), was pipetted as quadruplicates into the wells of a 96-hole microtiter plate. Wells that contained the solvent without test compounds were used as reference values (1. Wells without carbonic anhydrase for correction of the non-enzymatic hydrolysis of the substrate, and 2. Wells with carbonic anhydrase for determining the activity of the non-inhibited enzyme).
(§4) 188 μL of assay buffer (10 mmol/L of Tris/HCl, pH 7.4, 80 mmol/L of NaCl), with or without 3 units/well of carbonic anhydrase-1 [=human carbonic anhydrase-1 (Sigma, #C4396)] in order to determine carbonic anhydrase-1 inhibition or 3 units/well of carbonic anhydrase-2 [=human carbonic anhydrase-2 (Sigma, #C6165)] for measuring carbonic anhydrase-2 inhibition, was pipetted into the wells of the microtiter plate.

[2] = Equilibrium shake flask solubility assay, thermodynamic solubility in water (Method 4a); type: physicochemical; details: aqueous buffer, thermodynamic from solid; phosphate buffer pH 6.5, 24 h, room temperature
Procedure: 4. Equilibrium Shake Flask Solubility Assay:
4a) Thermodynamic Solubility in Water
The thermodynamic solubility of compounds in water was determined by an equilibrium shake flask method (see for example: E. H. Kerns, L. Di: Drug-like Properties: Concepts, Structure Design and Methods, 276-286, Burlington, Mass., Academic Press, 2008). A saturated solution of the drug was prepared and the solution was mixed for 24 h to ensure that equilibrium was reached. The solution was centrifuged to remove the insoluble fraction and the concentration of the compound in solution was determined using a standard calibration curve. To prepare the sample, 2 mg solid compound was weighed in a 4 mL glass vial. 1 mL phosphate buffer pH 6.5 was added. The suspension was stirred for 24 hrs at room temperature. The solution was centrifuged afterwards. To prepare the sample for the standard calibration, 2 mg solid sample was dissolved in 30 mL acetonitrile. After sonification the solution was diluted with water to 50 mL. Sample and standards were quantified by HPLC with UV-detection. For each sample two injection volumes (5 and 50 μl) in triplicates were made. Three injection volumes (5 μl, […]) were made for the standard. […]
The areas of sample- and standard injections as well as the calculation of the solubility value (in mg/l) were determined by using HPLC software (Waters Empower 2 FR).

[3] = molecular target: T2, human carbonic anhydrase-2 (Homo sapiens, UniProt P00918); assay: Carbonic anhydrase assay, carbonic anhydrase-2 (Method 6); type: biochemical; details: read-out: Inhibition of Carbonic anhydrase-2 IC50
T2 construct: purchased Sigma C6165
Procedure: as §1, §2, §3, §4

An IC50 [1] of over 10 µM, a solubility at 24 h [2] of 7 µg/mL (≈ 18.1 µM) and an IC50 [3] of over 10 µM were found for `COc1cc(F)ccc1-c1cc(Nc2cc(CS(C)(=N)=O)ccn2)ncn1` (racemic) [Example 1, (rac)-6-(4-Fluoro-2-methoxyphenyl)-N-{4-[(S-methylsulfonimidoyl)methyl]pyridin-2-yl}pyrimidin-4-amine] in this work.
